Measurements as given in patent US12349708B2, “Use and methods of 1,3-propanediol to improve taste and/or off-taste qualities” (Primient Covation LLC, priority 2019, dated 2025).
“Also recorded” adds a separate entry of the source. Counter-ions that a name gives are not always drawn.

Experiments:
[1] = system: experienced and trained panelist; assay: Sensorial description of energy drinks and additive solutions with propylene glycol or biologically-produced 1,3-propanediol (multi-sip-and-swallow taste method); details: for Sensorial Description: RT;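 on all read-outs here: propylene glycol or 1,3-propanediol added at 0.01, 0.1 or 1.0%, tasted by multi-sip-and-swallow in duplicate, compared with matching controls lacking either additive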
[2] = 0.05% in black tea; U.S. Pat. No. 8,685,436; cited from earlier work

In the case of `CC(O)CO` (stereo not drawn) [PG, propylene glycol, reference compound], the “Sensorial Description” value ([1]; 0.01% PG or PDO in 238 ppm sucralose (10% SE) in distilled water) is reported as 6-7% SE, significantly less sweet, the “Sensorial Description” value ([1]; 0.01% PG or PDO in 338 ppm caffeine in distilled water (caffeine drink)) is reported as “Looked similar to Control #72” and the “Sensorial Description” value ([1]; 0.01% PG or PDO in 3,338 ppm caffeine in distilled water (caffeine shot)) is reported as “(small sip): similar to Control #65”. For the same molecule, the “Sensorial Description” value ([1]; 0.01% PG or PDO in 10,500 ppm malic acid and 2,000 ppm sucralose in distilled water) was “Less sweetness and sourness intensities (different”, the “Sensorial Description” value ([1]; 0.01% PG or PDO in Bang energy drink) was “Significantly less sweet and its lingering but still” and the “Sensorial Description” value ([1]; 0.01% PG or PDO in Berry flavor in distilled water) was “Less dry than Control #114, slight less flavor”. For the same molecule, the “Sensorial Description” value ([1]; 0.01% PG or PDO in Monster Energy Zero Ultra) was “Significant less off-taste, less sourness, significantly”, the “Sensorial Description” value ([1]; 0.01% PG or PDO in Monster Energy drink) was “Note: Loss of carbonation. Significantly less” and the “Sensorial Description” value ([1]; 0.01% PG or PDO in NOS High Performance Energy Drink) was “Significantly less sourness and flavor, less sweet”. The “Sensorial Description” value ([1]; 0.01% PG or PDO in Orange 5-hour ENERGY shot (5HE Orange)) was “Significantly less flavor and bitterness, still strong”, the “Sensorial Description” value ([1]; 0.01% PG or PDO in Red Bull Energy Drink) was “Much better taste quality overall significantly less” and the “Sensorial Description” value ([1]; 0.01% PG or PDO in Red Bull Sugar Free) was “Significantly less off-tastes, still different off-taste”. For the same molecule, the “Sensorial Description” value ([1]; 0.01% PG or PDO in Rockstar Original energy drink) was “Clearer off-flavor than sweet/sour, less sourness but”, the “reduction of sweetness and lingering at 1st half of the taste time” value ([1]; 0.01% in 2,000 ppm sucralose in distilled water) was “lingering, ~40% less at 1st half of the taste time,” and the “Sensorial Description” value ([1]; 0.1% PG or PDO in 238 ppm sucralose (10% SE) in distilled water) was ~5-6% SE, slightly less sweetness. For the same molecule, the “Sensorial Description” value ([1]; 0.1% PG or PDO in 2,000 ppm sucralose in distilled water) was “(small sip): Less overall sweet quality including 2nd”, the “Sensorial Description” value ([1]; 0.1% PG or PDO in 3,338 ppm caffeine in distilled water (caffeine shot)) was “(small sip): similar to Control #65” and the “Sensorial Description” value ([1]; 0.1% PG or PDO in Berry 5-hour ENERGY shot (5HE Berry)) was “Significantly less sweet and aftertaste and sweet”. The “Sensorial Description” value ([1]; 0.1% PG or PDO in Berry flavor in distilled water) was “Less dry than 0.01% PG, slight less flavor”, the “Sensorial Description” value ([1]; 0.1% PG or PDO in Monster Energy Zero Ultra) was “More smooth tasting quality, less sourness, no bitter,” and the “Sensorial Description” value ([1]; 0.1% PG or PDO in Monster Energy drink) was “Note: Loss of carbonation. Similar carbonic acid off-”. The “Sensorial Description” value ([1]; 0.1% PG or PDO in NOS High Performance Energy Drink) was “No bitterness, smoother, still flavor and sweet, less”, the “Sensorial Description” value ([1]; 0.1% PG or PDO in Orange 5-hour ENERGY shot (5HE Orange)) was “Less flavor, no bitterness, still strong sourness but less” and the “Sensorial Description” value ([1]; 0.1% PG or PDO in Red Bull Energy Drink) was “Note: Loss of carbonation. Medium flavor level, less”. For the same molecule, the “Sensorial Description” value ([1]; 0.1% PG or PDO in Red Bull Sugar Free) was “Flatter, smoothness, still different off-taste as 0.01%”, the “reduction of overall sweet quality” value ([1]; 0.1% in 2,000 ppm sucralose in distilled water) was “half of tasting time, ~10-20% less than 0.01% PG,” and the “Sensorial Description” value ([1]; 1.0% PG or PDO in 79 ppm sucralose (5% SE) in distilled water) was “Weak PG taste note, similar sweet quality”. For the same molecule, the “Sensorial Description” value ([1]; 1.0% PG or PDO in 238 ppm sucralose (10% SE) in distilled water) was “Slight PG taste, sweet smoother”, the “Sensorial Description” value ([1]; 1.0% PG or PDO in 338 ppm caffeine in distilled water (caffeine drink)) was “Worst quality, more bitterness, medium intensity,” and the “Sensorial Description” value ([1]; 1.0% PG or PDO in 2,000 ppm sucralose in distilled water) was “(small sip): Similar to 0.1% PG. Repeated tests”. For the same molecule, the “Sensorial Description” value ([1]; 1.0% PG or PDO in 3,338 ppm caffeine in distilled water (caffeine shot)) was “(small sip): similar to Control #65, no PG taste”, the “Sensorial Description” value ([1]; 1.0% PG or PDO in 10,500 ppm malic acid and 2,000 ppm sucralose in distilled water) was “PF taste note, similar qualities as 0.1% PG” and the “Sensorial Description” value ([1]; 1.0% PG or PDO in 10,500 ppm malic acid, 2,000 ppm sucralose, 3,338 ppm caffeine in distilled water) was “Stronger, thinner sourness quality”. For the same molecule, the “Sensorial Description” value ([1]; 1.0% PG or PDO in B vitamins at 5-hour Energy shot concentrations in distilled water) was “PG flavor taste, similar other qualities as Control”, the “Sensorial Description” value ([1]; 1.0% PG or PDO in Berry 5-hour ENERGY shot (5HE Berry)) was “Began to show more sourness across the taste, still” and the “Sensorial Description” value ([1]; 1.0% PG or PDO in Berry flavor in distilled water) was “Less dry than Control #114, slight less flavor”. The “Sensorial Description” value ([1]; 1.0% PG or PDO in Monster Energy Zero Ultra) was “Very smooth, flat tasting quality of basic tastes, no”, the “Sensorial Description” value ([1]; 1.0% PG or PDO in Monster Energy drink) was “Note: Little carbonation. Little or no sourness, very” and the “Sensorial Description” value ([1]; 1.0% PG or PDO in NOS High Performance Energy Drink) was “Smoother than 0.1% PG, low-medium flavor, low”. The “Sensorial Description” value ([1]; 1.0% PG or PDO in Orange 5-hour ENERGY shot (5HE Orange)) was “Less flavor, sourness and sweetness, still moderate”, the “Sensorial Description” value ([1]; 1.0% PG or PDO in Red Bull Energy Drink) was “Note: significantly less or no carbonation. Low” and the “Sensorial Description” value ([1]; 1.0% PG or PDO in Red Bull Sugar Free) was “Medium off-flavor (not described) in middle tasting”. For the same molecule, the “Sensorial Description” value ([1]; 1.0% PG or PDO in Rockstar Original energy drink) was “Slight off-flavor (seems like PDO's off flavor), little”, the “reduction in unpleasant taste or masking of off-taste” value ([1]; 2,000 ppm, 238 ppm, or 70 ppm sucralose in distilled water) was “No reduction in unpleasant taste, or masking of off-taste” and the “reduction of unpleasant taste / masking of bitterness” value ([1]; 3,382 ppm or 338 ppm caffeine in distilled water) was “did not reduce the unpleasant taste, or mask the bitterness”. The “taste modulation of B vitamins” value ([1]; aqueous B vitamins at concentrations comparable to 5-hour ENERGY shots) was “did not positively modulate”, the “modulation of berry flavor” value ([1]; berry flavor in distilled water) was “Neither biologically-produced 1,3-propanediol, nor propylene glycol modulated the flavor” and the “taste modulation or sour masking” value ([1]; malic acid at 10,500 ppm in distilled water) was “no positive taste modulation or sour masking effect”. For the same molecule, the “taste modulation of single additive solutions” value ([1]; separate caffeine, malic acid, and sucralose solutions at mega-dose levels) was “did not positively modulate the taste or mask the bitter, off, or sour tastes; also recorded: neither propylene glycol, nor biologically-produced 1,3-propanediol modulated the taste”.

In the case of `COc1cc([C@@H]2CC(=O)c3c(O)cc(O)cc3O2)ccc1O` [homoeriodictyol disodium salt], the perceived bitterness [2] is listed as “reduced the perceived bitterness”.

In the case of `O=C(O)CC(O)C(=O)O` (stereo not drawn) [malic acid], the “Sensorial Description” value ([1]; control: 10,500 ppm malic acid in distilled water, no PG or PDO) is reported as “Extreme sourness, clean sourness quality, slightly dry”.

In the case of `OC[C@H]1O[C@H](O[C@]2(CCl)O[C@H](CCl)[C@@H](O)[C@@H]2O)[C@H](O)[C@@H](O)[C@H]1Cl` [sucralose], the “Sensorial Description” value ([1]; control: 79 ppm sucralose in distilled water, no PG or PDO) is reported as “Comfortably 5% SE sweet, good sweet quality”, the “Sensorial Description” value ([1]; control: 238 ppm sucralose in distilled water, no PG or PDO) is reported as 10% SE, delayed onset of sweetness, very sweet and the “Sensorial Description” value ([1]; control: 2,000 ppm sucralose in distilled water, no PG or PDO) is reported as “(small sip): Extremely sweet, extremely strong sweet”.
